# Experimental data published in patent publication US20150045410A1, “METHOD OF REGULATING CFTR EXPRESSION AND PROCESSING” (University of Iowa Research Foundation, priority 2012, published 2015).
# Columns and labels:
# SIN3A = SIN3A mRNA (RT-qPCR) and protein (immunoblot) in primary human airway epithelia; type: cell-based; conditions: polarized primary human airway epithelia; mRNA 24 hrs, protein 72 hrs post-transfection
# Protocol: Airway epithelia from human trachea and primary bronchus removed from organs donated for research were cultured at the air-liquid interface (ALI) (Karp, P. H. et al. An in vitro model of differentiated human airway epithelia. Methods for establishing primary cultures. Methods Mol. Biol. 188, 115-137 (2002)). These studies were approved by the Institutional Review Board of the University of Iowa. Briefly, airway epithelial cells were dissociated from native tissue by pronase enzyme digestion. Permeable membrane inserts (0.6 cm^2 Millipore-PCF, 0.33 cm^2 Costar-Polyester) pre-coated with human placental collagen (IV, Sigma) were seeded with freshly dissociated epithelia. […]
# First-strand cDNA was synthesized using SuperScript® II (Invitrogen), and oligo-dT and random-hexamer primers. […] To quantitate miRNAs, TaqMan® microRNA Assays (Applied Biosystems) were obtained for miR-138, RNU48 (control) and 8 other miRNAs (negative control, miRs-21, -24, -26a, -200c, -146a, -146b, -27a*, -134). […] All experiments were performed in quadruplicate. mRNA and miRNA quantification in cell lines represents 8 independent transfections in 4 separate experiments. mRNA quantification in human primary airway epithelial cultures represent 8 independent transfections in 8 non-CF donors and 4 CF donors. […]
# SIN3A 3′UTR = test: Dual-luciferase reporter assay (psiCHECK-2 vector with SIN3A 3′UTR) in HEK293T cells; type: cell-based; conditions: HEK293T cells co-transfected with psiCHECK-2 and increasing concentrations of mimic; vs Scr
# Excerpt: FIG. 5: miR-138 regulates SIN3A in a dose-dependent and site-specific manner. HEK293T cells were co-transfected with the psiCHECK-2 vector (containing the SIN3A 3′UTR) and increasing concentrations of Scr or miR-138 mimic (Scr: non-targeting control oligonucleotide). To test site-specificity, the two predicted binding sites of miR-138 on SIN3A 3′UTR cloned in the psiCHECK-2 vector were mutated and the experiment repeated. Error bars indicate mean±SE; (n=4, 3 replicates each); *P<0.01, relative to Scr.
# The 3′UTR of SIN3A was cloned into the Xho1/Not1 restriction enzyme sites in the 3′UTR of Renilla luciferase in the psiCHECK™-2 vector (Promega). HEK293T cells were cotransfected with 20 ng of psiCHECK-2 vector and different concentrations of miR-138 mimic. The Lipofectamine™ RNAiMAX (Invitrogen) reverse transfection protocol was used as described above. The miR-138 binding sites on the SIN3A 3′UTR were mutated using the site-directed, ligase-independent mutagenesis (SLIM) protocol (Chiu, J., Tillett, D., Dawes, I. W. & March, P. E. Site-directed, Ligase-Independent Mutagenesis (SLIM) for highly efficient mutagenesis of plasmids greater than 8 kb. J Microbiol. Methods 73, 195-198 (2008); Chiu, J., March, P. E., Lee, R. & Tillett, D. Site-directed, Ligase-Independent Mutagenesis (SLIM): a single-tube methodology approaching 100% efficiency in 4 h. Nucleic Acids Res. 32, (2004)). […]
substance,measurement,setting,value
"miR-138 mimic: synthetic modified RNA duplex, sense SEQ ID NO: 4, antisense SEQ ID NO: 5, showing miR-138-like activity",SIN3A mRNA and protein levels,SIN3A,reduced
same,"SIN3A expression (Renilla luciferase with SIN3A 3′UTR, normalized to firefly luciferase)",SIN3A 3′UTR,repressed SIN3A expression in a dose-dependent manner
